Patent US9827181B2, “Method and pharmaceutical composition for hair growth” (INDUSTRIAL TECHNOLOGY RESEARCH INSTITUTE, priority 2013, dated 2017)
Entries after “also recorded” stand apart in the source; their conditions may differ.

What was measured:
[1] = tested on: hair follicles on the dorsal skin of female C57BL/6 mice; assay: mouse model of hair regeneration (dorsal skin, refractory telogen phase); conditions: high dosage level (2000 μM) on dorsal skin, once a day for 10 days, negative = no hair growth;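 further: mice roughly 8 weeks old, negative control skin section treated with 100% alcohol, regrowth checked daily with day counted from start of dosing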
Method: The mouse model adopts female C57BL/6 mice (about 8 weeks).
In the present disclosure, the sample solution is applied on the dorsal skin, where the hair follicle stays at the refractory telogen phase, to observe whether the peptides are beneficial to hair growth.
The sample solution is applied on each of the sections for 10 days. The administration of the sample solution includes, but not limited to, the injection (50 μl) and the coating (10 μl). In addition, the dosage of the sample solution includes, but not limited to, the high dosage level (2000 μM) and the low dosage level (200 μM).
In order to avoid experimental error due to manual operation, a positive control and a negative control are predetermined on two sections. […] The second section 2 is coated with high dosage level of HGP or the pharmaceutical composition for 10 days (once a day). The third section 3 is coated with low dosage level of HGP or the pharmaceutical composition for 10 days (once a day). The fourth section 4 is coated with 100% alcohol for 10 days (once a day). The fourth section 4 is regarded as the negative control. The fifth section 5 is continuously injected with the high dosage of HGP or pharmaceutical composition for 10 days (once a day). The sixth section 6 is continuously injected with the low dosage of HGP or pharmaceutical composition for 10 days (once a day). The HGP prepared for the sections is the same amino acid sequence.
HGP or pharmaceutical composition having the same as referred at the table 1 is implemented through the above-mentioned process and then the hair regeneration condition is recorded everyday. Since the period of the refractory telogen phase is 28 days, it is regards as a negative result that no hair regeneration is observed at thirtieth day after the administration of the sample solution.
The number x of the hair growth in the table 3 means that the hair regeneration condition is observed at the x'th day after the high dosage level is administrated on the dorsal skin. For instance, the number (x=5) means that the hair growth is observed at fifth day. Furthermore, the symbol NA represents the need for further analysis. […] In addition, the “negative” represents no hair growth by using the peptide in accordance with the experimental number.

[2] = tested on: marker CK15 of the hair follicle stem cells; assay: immuno-fluorescent staining, marker CK15; format: in vivo, mouse; conditions: mice injected with the peptide, FIG. 3
Method: (§1) After the female C57BL/6 mice are injected with the SEQ ID No. 1 peptide, the immuno-fluorescent staining with the marker CK15 is performed so as to observe whether the genes, such as Wnt3a, Wnt/β-catenin are activated or not.
(§2) Thus, the SEQ ID No: 1 peptide enables activation of the regeneration of the hair follicle stem cells. In order to realize how the SEQ ID No: 1 peptide activates the regeneration of the hair follicle stem cells, the immuno-fluorescent staining in accordance with Win/β-catenin signal transduction pathway is performed. […] Since β-catenin is a downstream gene of Wnt signal transduction pathway, activating β-catenin allows the initiation of a Wnt signal transduction pathway so as to regenerate the hair follicle stem cell. […] In other words, the SEQ ID No: 1 peptide may activate the Wnt/β-catenin signal transduction pathway to activate the regeneration of the hair follicle stem cells.

[3] = tested on: β-catenin activity in Human Hair Follicular Keratinocytes (HHFK); assay: TCF reporter assay in HHFK cell line; format: cell-based; conditions: HHFK cells, 200 μM peptide, TOP/FOP reporter, FIG. 6; listed as SEQ ID No: 1
Method: (§3) FIG. 6 illustrates a schematic view of a TCF reporter assay in Human Hair Follicular Keratinocytes (HHFK) cell line. TOP represents that the reporter gene has a functional binding site where β-catenin is bound. […] CTL represents that HHFK cell line is not treated with any stimulant. iPept-1 means that HHFK cell line is treated with the SEQ ID No: 1 peptide.
(§4) In the present disclosure, Human Hair Follicular Keratinocytes (HHFK), HaCaT Keratinocyte and macrophages are used as cell models for realizing the mechanism. Reporter assay and QRT-PCR are used as bioactivity assays to identify how the SEQ ID No. 1 peptide improves hair growth.

[4] = tested on: β-catenin in the hair follicle stem cells; assay: immuno-fluorescent staining, β-catenin marker; format: in vivo, mouse; conditions: FIG. 5, listed as SEQ ID No: 1
Method: as §1, §2

[5] = tested on: Wnt3a in the hair follicle stem cells; assay: immuno-fluorescent staining, Wnt3a marker; format: in vivo, mouse; conditions: FIG. 4
Method: as §1, §2

[6] = tested on: β-catenin activity in HaCaT Keratinocytes; assay: TCF reporter assay in HaCaT Keratinocyte cell line; format: cell-based; conditions: HaCaT cells, 200 μM peptide, TOP/FOP reporter, FIG. 7; listed as SEQ ID No: 1
Method: as §3, with “7” for “6”, “HaCaT Keratinocyte” for “Human Hair Follicular Keratinocytes (HHFK)”, “HaCaT Keratinocytes are” for “HHFK cell line is”
as §4

[7] = tested on: Wnt16 gene expression in macrophages; assay: RT-PCR / QRT-PCR analysis in macrophages, Wnt16; format: cell-based, human; conditions: 200 μM peptide for 8 hours
Method: (§5) The SEQ ID No. 1 peptide is treated in HHFK, HaCaT and human macrophage to study the hair growth mechanism induced by the SEQ ID No. 1 peptide. In the present disclosure, Human Hair Follicular Keratinocytes (HHFK), HaCaT Keratinocyte and macrophages are used as cell models for realizing the mechanism. Reporter assay and QRT-PCR are used as bioactivity assays to identify how the SEQ ID No. 1 peptide improves hair growth. After macrophages are treated with the 200 μM SEQ ID No: 1 peptide (iPept-1) for 8 hours, gene regulation of Wnt family (Wnt1, Wnt2, Wnt3a, Wnt4, Wnt6, Wnt7a, Wnt7b, Wnt10a, Wnt10b, Wnt16) are detected by RT-PCR and QRT-PCR tests as shown in FIGS. 8 and 9. It is observed that the transcription level of Wnt16 and Wnt7b increases in accordance with the treatment of iPept-1.

[8] = tested on: Wnt7b gene expression in macrophages; assay: RT-PCR analysis in macrophages, Wnt7b; format: cell-based, human; conditions: 200 μM peptide for 8 hours
Method: as §5

## FGSFGLITHTI (a designed peptide according to experiment) [P39]
[1]
  Number x (hair regeneration observed at the x'th day): negative

## FGSFGSITHTI (a designed peptide according to experiment) [P40]
[1]
  Number x (hair regeneration observed at the x'th day): negative

## FGSFVLITHTI (a designed peptide according to experiment) [P38]
[1]
  Number x (hair regeneration observed at the x'th day): negative

## FGSHVLITHTI (a designed peptide according to experiment) [P37]
[1]
  Number x (hair regeneration observed at the x'th day): negative

## FGTHVLITHTI (a designed peptide according to experiment) [P36]
[1]
  Number x (hair regeneration observed at the x'th day): 15 days

## FSTHVLITHTI (a designed peptide according to experiment) [P35]
[1]
  Number x (hair regeneration observed at the x'th day): 15 days

## GSFGFLITHTI (a designed peptide according to experiment) [P33]
[1]
  Number x (hair regeneration observed at the x'th day): negative

## GSFGSFITHTI (a designed peptide according to experiment) [P34]
[1]
  Number x (hair regeneration observed at the x'th day): negative

## GSFGVLITHTI (a designed peptide according to experiment) [P32]
[1]
  Number x (hair regeneration observed at the x'th day): negative

## GSFHVLITHTI (a designed peptide according to experiment) [P31]
[1]
  Number x (hair regeneration observed at the x'th day): negative

## GSTHVLITHTI (a designed peptide according to experiment) [P30]
[1]
  Number x (hair regeneration observed at the x'th day): 22 days

## HVLIT (a designed peptide according to experiment) [P2]
[1]
  Number x (hair regeneration observed at the x'th day): 17 days

## HVLITHTI (a designed peptide according to experiment) [P15]
[1]
  Number x (hair regeneration observed at the x'th day): negative

## ITHTI (a designed peptide according to experiment) [P7]
[1]
  Number x (hair regeneration observed at the x'th day): 17 days

## LITHT (a designed peptide according to experiment) [P4]
[1]
  Number x (hair regeneration observed at the x'th day): 17 days

## LITHTI (a designed peptide according to experiment) [P17]
[1]
  Number x (hair regeneration observed at the x'th day): 22 days

## PSTHVL (a designed peptide according to experiment) [P8]
[1]
  Number x (hair regeneration observed at the x'th day): 15 days

## PSTHVLGSFGS [P18]
[1]
  Number x (hair regeneration observed at the x'th day): 22 days

## PSTHVLI (a designed peptide according to experiment) [P9]
[1]
  Number x (hair regeneration observed at the x'th day): negative

## PSTHVLIFGSG [P24]
[1]
  Number x (hair regeneration observed at the x'th day): negative

## PSTHVLIGSFG (a designed peptide according to experiment) [P19]
[1]
  Number x (hair regeneration observed at the x'th day): negative

## PSTHVLIT (a designed peptide according to experiment) [P10]
[1]
  Number x (hair regeneration observed at the x'th day): negative

## PSTHVLITGSF (a designed peptide according to experiment) [P20]
[1]
  Number x (hair regeneration observed at the x'th day): negative

## PSTHVLITGSG (a designed peptide according to experiment) [P25]
[1]
  Number x (hair regeneration observed at the x'th day): 22 days

## PSTHVLITH (a designed peptide according to experiment) [P11]
[1]
  Number x (hair regeneration observed at the x'th day): 19 days

## PSTHVLITHGS (a designed peptide according to experiment) [P21]
[1]
  Number x (hair regeneration observed at the x'th day): 23 days

## PSTHVLITHSG (a designed peptide according to experiment) [P26]
[1]
  Number x (hair regeneration observed at the x'th day): 22 days

## PSTHVLITHT (a designed peptide according to experiment) [P12]
[1]
  Number x (hair regeneration observed at the x'th day): 19 days

## PSTHVLITHTG (a designed peptide according to experiment) [P22]
[1]
  Number x (hair regeneration observed at the x'th day): 23 days

## PSTHVLITHTI (a designed peptide according to experiments) [P1]
[2]
  activation of marker CK15 of hair follicle stem cells: obviously activated
[3]
  relative luciferase activity (activity of β-catenin): increase the activity of β-catenin; also recorded: enhance activity of β-catenin
[4]
  activation of β-catenin in hair follicle stem cells: effect on activating or regenerating the hair follicle stem cells; also recorded: activated
[5]
  activation of Wnt3a in hair follicle stem cells: obviously activated
[6]
  relative luciferase activity (activity of β-catenin): increase the activity of β-catenin; also recorded: enhance activity of β-catenin
[7]; FIG. 8, listed as SEQ ID No: 1
  gene expression of Wnt16 (RT-PCR): activate the gene expression
[7]; FIG. 8, listed as iPept-1
  gene expression of Wnt16 (RT-PCR): increases
[7]; FIG. 9
  gene expression of Wnt16 (QRT-PCR): enhances the gene expression
[8]; FIG. 8, listed as SEQ ID No: 1
  gene expression of Wnt7b (RT-PCR): activate the gene expression
[8]; FIG. 8, listed as iPept-1
  gene expression of Wnt7b (RT-PCR): increases
[1]
  Number x (hair regeneration observed at the x'th day): 17 days

## PSTHVLITHTIS (a designed peptide according to experiment) [P29]
[1]
  Number x (hair regeneration observed at the x'th day): 22 days

## PSTHVLITHTISR (a designed peptide according to experiment) [P28]
[1]
  Number x (hair regeneration observed at the x'th day): negative

## PSTHVLITHTISRI (a designed peptide according to experiment) [P6]
[1]
  Number x (hair regeneration observed at the x'th day): 19 days

## PSTHVLITHTS (a designed peptide according to experiment) [P27]
[1]
  Number x (hair regeneration observed at the x'th day): negative

## PSTHVLLTHTI (a designed peptide according to experiments) [P41]
[1]
  Number x (hair regeneration observed at the x'th day): 19 days

## PSTHVLSFGSG (a designed peptide according to experiment) [P23]
[1]
  Number x (hair regeneration observed at the x'th day): negative

## STHVL (a designed peptide according to experiment) [P5]
[1]
  Number x (hair regeneration observed at the x'th day): 19 days

## STHVLITHTI (a designed peptide according to experiment) [P13]
[1]
  Number x (hair regeneration observed at the x'th day): negative

## THVLITHTI (a designed peptide according to experiment) [P14]
[1]
  Number x (hair regeneration observed at the x'th day): negative

## VLITH (a designed peptide according to experiment) [P3]
[1]
  Number x (hair regeneration observed at the x'th day): 17 days

## VLITHTI (a designed peptide according to experiment) [P16]
[1]
  Number x (hair regeneration observed at the x'th day): negative
